For 17 compounds, IC50 results are on record in US20240140957A1, “BRIDGED COMPOUNDS AS KRAS G12D INHIBITOR AND DEGRADER AND THE USE THEREOF” (BeiGene Switzerland GmbH, priority 2021, published 2024).

Assay [1] has as its target KRAS G12D:SOS1 (Homo sapiens, UniProt P01116, G12D). Put plainly: KRAS G12D:SOS1 GDP TR-FRET assay. The assay is classed as binding. Conditions: GST-KRAS G12D 37.5 nM, GDP 10 μM, His-SOS1 18 nM. As for the experimental part: (§1) KRAS:SOS1 GDP TR-FRET Assay
(§2) This assay was used to identify compounds which competitively interact with the binding of KRAS protein to SOS1 in the presence of GDP. […] All protein and reaction solutions were prepared in assay buffer containing DPBS pH7.5, 0.1% BSA, and 0.05% Tween 20. Purified GST-tagged WT KRAS or KRAS G12D protein (37.5 nM final assay concentration) and GDP (Sigma, 10 μM final assay concentration) mixture, a serially diluted compound (top final concentration is 50 μM or 10 uM, 3-fold serially diluted, 10 points) and His-tagged SOS1 protein (18 nM final assay concentration) were added into the assay plates (384 well microplate, black, Corning) sequentially. Plates are incubated at 24° C. for 1 hr. Following the incubation, Mab Anti-GST-Tb cryptate (Cisbio) and […] (Cisbio) were added and further incubated at 24° C. for another 1 hr. The TR-FRET signals (ex337 nm, em665 nm/620 nm) were read on BMG PHERAstar FSX instrument. The inhibition percentage of KRAS protein binding with SOS1 in presence of increasing concentrations of compounds was calculated based on the ratio of fluorescence at 665 nm to that at 620 nm. The IC50 value of each compound was calculated from fitting the data to the four-parameter logistic model by Dotmatics.
A general note: TR-FRET usually uses a lanthanide donor and a delayed reading to cut background.

In assay [2] the target is WT KRAS:SOS1 (Homo sapiens, UniProt P01116). Put plainly: KRAS WT:SOS1 GDP TR-FRET assay. The following applies: GST-WT KRAS 37.5 nM, GDP 10 μM, His-SOS1 18 nM. The assay is classed as binding. As for the experimental part:
as §1, §2

Assay [3] relates to pERK1/2 (THR202/TYR204) in AsPC-1 cells. The experiment in a line: pERK Assay (HTRF) in AsPC-1 cells. The assay is classed as cell-based. The following applies: Homo sapiens, ASPC1, 2 h compound treatment. Here is the method: AsPC-1 cell line was used in this study. […] 30000 cells per well were seeded into a 96-well plate and incubated overnight. […] After 2 h compound treatment, cells were lysed, and the pERK1/2 (THR202/TYR204) level in the cell lysates was detected by HTRF kit (Cisbio). In brief, a total of 16 μL of cell lysate from each well of a 96-well plate was transferred to a 384-well white assay plate. Lysate from each well was incubated with 2 μL of Eu3+-cryptate (donor) labeled anti-phospho-ERK1/2 and 2 μL of D2 (acceptor) labeled anti-phospho-ERK1/2 antibodies (Cisbio) overnight in dark at room temperature. When donor and acceptor are in close proximity, excitation of the donor with laser triggers a Fluorescence Resonance Energy Transfer (FRET) towards the acceptor, which in turn fluoresces at 655 nm wavelength. FRET signals were measured using a PHERAstar FSX reader (BMG Labtech).

The target of assay [4] is GDP-loaded KRAS G12D (Homo sapiens, UniProt P01116, G12D). The experiment in a line: KRAS G12D Probe Displacement Assay. The assay is classed as binding. Conditions: KRAS G12D 0.5 nM, biotinylated probe 2 4 nM; Table 6 letters; read-out: KRAS G12D Probe Displacement Assay IC50 (class).
Sequence of GDP-loaded KRAS G12D (P01116 1-188 isoform P01116-2 G12D): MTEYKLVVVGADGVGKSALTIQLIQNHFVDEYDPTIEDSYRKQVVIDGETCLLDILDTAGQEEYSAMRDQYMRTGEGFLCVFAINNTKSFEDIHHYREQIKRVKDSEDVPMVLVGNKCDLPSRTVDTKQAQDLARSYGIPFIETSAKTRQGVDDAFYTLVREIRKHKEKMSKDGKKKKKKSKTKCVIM

Sequence of KRAS G12D:SOS1 (P01116 1-188 isoform P01116-2 G12D): as above
Sequence of WT KRAS:SOS1 (P01116 1-188 isoform P01116-2): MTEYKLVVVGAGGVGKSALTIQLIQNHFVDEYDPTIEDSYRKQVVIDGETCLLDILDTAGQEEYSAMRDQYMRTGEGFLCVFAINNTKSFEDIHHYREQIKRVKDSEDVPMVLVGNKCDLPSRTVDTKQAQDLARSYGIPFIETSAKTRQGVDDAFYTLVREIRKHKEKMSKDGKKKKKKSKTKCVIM

In general, IC50 refers to the midpoint of a concentration-inhibition curve. For `C[C@@H](CN1CCN(C)CC1)Oc1nc(N2CC3CCC(C2)N3)c2cc(Cl)c(-c3ccc(F)c4sc(N)nc34)c(F)c2n1` [Example E34, 4-(4-(3,8-diazabicyclo[3.2.1]octan-3-yl)-6-chloro-8-fluoro-2-(((S)-1-(4-methylpiperazin-1-yl)propan-2-yl)oxy)quinazolin-7-yl)-7-fluorobenzo[d]thiazol-2-amine], the IC50 is 15 nM in assay [1], 1350 nM in assay [2] and more than 10000 nM in assay [3].
On to `C[C@@H](CN1CCC(C#N)CC1)Oc1nc(N2CC3CCC(C2)N3)c2cc(Cl)c(-c3ccc(F)c4sc(N)nc34)c(F)c2n1` [Example E26, 1-((2S)-2-((7-(2-amino-7-fluorobenzo[d]thiazol-4-yl)-4-(3,8-diazabicyclo[3.2.1]octan-3-yl)-6-chloro-8-fluoroquinazolin-2-yl)oxy)propyl)piperidine-4-carbonitrile], for which the figures for the IC50 in assay [1], in assay [2] and in assay [3] were 2.9 nM, 140 nM and 819 nM, respectively.
For the compound `CC1CCCCN1C[C@H](C)Oc1nc(N2CC3CCC(C2)N3)c2cc(Cl)c(-c3ccc(F)c4sc(N)nc34)c(F)c2n1` (stereo partly drawn) [Example E27, 4-(4-(3,8-diazabicyclo[3.2.1]octan-3-yl)-6-chloro-8-fluoro-2-(((2S)-1-(2-methylpiperidin-1-yl)propan-2-yl)oxy)quinazolin-7-yl)-7-fluorobenzo[d]thiazol-2-amine], the results for the half-inhibitory concentration (IC50) in assay [1], in assay [2] and in assay [3] were 2.9 nM, 57 nM and 518 nM, respectively.
In the same order, the values of `C[C@@H](CN1CCC(F)(F)C1)Oc1nc(N2CC3CCC(C2)N3)c2cc(Cl)c(-c3ccc(F)c4sc(N)nc34)c(F)c2n1` [Example E20, 4-(4-(3,8-diazabicyclo[3.2.1]octan-3-yl)-6-chloro-2-(((S)-1-(3,3-difluoropyrrolidin-1-yl)propan-2-yl)oxy)-8-fluoroquinazolin-7-yl)-7-fluorobenzo[d]thiazol-2-amine] are 25 nM, more than 10000 nM and 7260 nM.
Consider `C[C@@H](CN1CC(F)(F)C1)Oc1nc(N2CC3CCC(C2)N3)c2cc(Cl)c(-c3ccc(F)c4sc(N)nc34)c(F)c2n1` [Example E32, 4-(4-(3,8-diazabicyclo[3.2.1]octan-3-yl)-6-chloro-2-(((S)-1-(3,3-difluoroazetidin-1-yl)propan-2-yl)oxy)-8-fluoroquinazolin-7-yl)-7-fluorobenzo[d]thiazol-2-amine], for which the half-maximal inhibitory concentration (IC50) in assay [1] was 81 nM; in assay [2] it was more than 10000 nM.
Taken in the same sequence, the figures for `CN(C)C1CN(c2nc(N3CCNCC3)c3cc(Cl)c(-c4cc(O)cc5ccccc45)c(F)c3n2)C1` [Example E2, 4-(6-chloro-2-(3-(dimethylamino)azetidin-1-yl)-8-fluoro-4-(piperazin-1-yl)quinazolin-7-yl)naphthalen-2-ol] were 4850 nM and more than 50000 nM.
In the same order, the values of `Nc1nc2c(-c3c(Cl)cc4c(N5CCNCC5)nc(OCCCN5CCN(CCCOCCC(=O)NCCOCCNC(=O)CCCC[C@@H]6SC[C@@H]7NC(=O)N[C@@H]76)CC5)nc4c3F)ccc(F)c2s1` [Example E56, N-(2-(2-(3-(3-(4-(3-((7-(2-amino-7-fluorobenzo[d]thiazol-4-yl)-6-chloro-8-fluoro-4-(piperazin-1-yl)quinazolin-2-yl)oxy)propyl)piperazin-1-yl)propoxy)propanamido)ethoxy)ethyl)-5-((3 aS, 4S,6aR)-2-oxohexahydro-1H-thieno[3,4-d]imidazol-4-yl)pentanamide] are 21 nM and 370 nM.
Consider `C=Cc1cc(N)nc(-c2c(Cl)cc3c(N4CC5CCC(C4)N5)nc(OC[C@@]45CCCN4C[C@H](F)C5)nc3c2F)c1C(F)(F)F` [Example E125, 6-(4-(3,8-diazabicyclo[3.2.1]octan-3-yl)-6-chloro-8-fluoro-2-(((2R,7aS)-2-fluorotetrahydro-1H-pyrrolizin-7a(5H)-yl)methoxy)quinazolin-7-yl)-5-(trifluoromethyl)-4-vinylpyridin-2-amine], for which the IC50 in assay [4] is less than 50 nM.
For `Nc1nc2c(-c3c(C(F)(F)F)cc4c(N5CC6CCC(C5)N6)nc(OCC5(CO)CCOCC5)nc4c3F)ccc(F)c2s1` [Example E187, (4-(((7-(2-amino-7-fluorobenzo[d]thiazol-4-yl)-4-(3,8-diazabicyclo[3.2.1]octan-3-yl)-8-fluoro-6-(trifluoromethyl)quinazolin-2-yl)oxy)methyl)tetrahydro-2H-pyran-4-yl)methanol], the IC50 in assay [4] is less than 50 nM.
Consider `Nc1nc2c(-c3c(C(F)(F)F)cc4c(N5CC6CCC(C5)N6)nc(OC5CS(=O)(=O)C5)nc4c3F)ccc(F)c2s1` [Example E148, 3-((7-(2-amino-7-fluorobenzo[d]thiazol-4-yl)-4-(3,8-diazabicyclo [3.2.1]octan-3-yl)-8-fluoro-6-(trifluoromethyl)quinazolin-2-yl)oxy)thietane 1,1-dioxide], for which the IC50 in assay [4] is less than 50 nM.
On to `N#Cc1cncc(CCOc2nc(N3CC4CCC(C3)N4)c3cc(C(F)(F)F)c(-c4ccc(F)c5sc(N)nc45)c(F)c3n2)c1` [Example E188, 5-(2-((7-(2-amino-7-fluorobenzo[d]thiazol-4-yl)-4-(3,8-diazabicyclo[3.2.1]octan-3-yl)-8-fluoro-6-(trifluoromethyl)quinazolin-2-yl)oxy)ethyl) nicotinonitrile], for which the concentration for half-maximal inhibition (IC50) in assay [4] is less than 50 nM.
The same measure, in the same setting: for `CC1(COc2nc(N3CC4CCC(C3)N4)c3cc(C(F)(F)F)c(-c4ccc(F)c5sc(N)nc45)c(F)c3n2)CCO1` (centres unmarked) [Example E166, 4-(4-(3,8-diazabicyclo[3.2.1]octan-3-yl)-8-fluoro-2-((2-methyloxetan-2-yl)methoxy)-6-(trifluoromethyl)quinazolin-7-yl)-7-fluorobenzo[d]thiazol-2-amine] the value was less than 50 nM; for `Nc1nc2c(-c3c(C(F)(F)F)cc4c(N5CC6CCC(C5)N6)nc(OCC5CS(=O)(=O)C5)nc4c3F)ccc(F)c2s1` [Example E171], less than 50 nM.
On to `CS(=O)(=O)N1CCN(c2nc(OC[C@@H]3CCCN3CCCOCCC(=O)NCCOCCNC(=O)CCCC[C@@H]3SC[C@@H]4NC(=O)N[C@@H]43)nc3c2CCN(c2cccc4cccc(Cl)c24)C3)C[C@@H]1CC#N` [Example E57, N-(2-(2-(3-(3-((S)-2-(((7-(8-chloronaphthalen-1-yl)-4-((S)-3-(cyanomethyl)-4-(methylsulfonyl)piperazin-1-yl)-5,6,7,8-tetrahydropyrido[3,4-d]pyrimidin-2-yl)oxy)methyl)pyrrolidin-1-yl)propoxy)propanamido)ethoxy)ethyl)-5-((3aS,4S,6aR)-2-oxohexahydro-1H-thieno[3,4-d]imidazol-4-yl)pentanamide], for which the results for the IC50 in assay [1] and in assay [2] were more than 10000 nM and 130 nM, respectively.
For `Nc1nc2c(-c3c(C(F)(F)F)cc4c(N5CC6CCC(C5)N6)nc(OCCC5(CCO)COC5)nc4c3F)ccc(F)c2s1` [Example E172, 2-(3-(2-((7-(2-amino-7-fluorobenzo[d]thiazol-4-yl)-4-(3,8-diazabicyclo[3.2.1]octan-3-yl)-8-fluoro-6-(trifluoromethyl)quinazolin-2-yl)oxy)ethyl)oxetan-3-yl) ethan-1-ol], in assay [4], the IC50 was less than 50 nM.
For `CS(=O)(=O)N1CC(COc2nc(N3CC4CCC(C3)N4)c3cc(C(F)(F)F)c(-c4ccc(F)c5sc(N)nc45)c(F)c3n2)C1` [Example E175, 4-(4-(3,8-diazabicyclo[3.2.1]octan-3-yl)-8-fluoro-2-((1-(methylsulfonyl)azetidin-3-yl)methoxy)-6-(trifluoromethyl)quinazolin-7-yl)-7-fluorobenzo[d]thiazol-2-amine], in assay [4], the half-inhibitory concentration (IC50) was less than 50 nM.
On the same count and under the same terms, as for `Nc1nc2c(-c3c(C4CC4(F)F)cc4c(N5CC6CCC(C5)N6)nc(OC[C@@]56CCCN5C[C@H](F)C6)nc4c3F)ccc(F)c2s1` (some centres unmarked) [Example E91, 4-(4-(3,8-diazabicyclo[3.2.1]octan-3-yl)-6-(2,2-difluorocyclopropyl)-8-fluoro-2-((2-fluorotetrahydro-1H-pyrrolizin-7a(5H)-yl)methoxy)quinazolin-7-yl)-7-fluorobenzo[d]thiazol-2-amine], the figure is less than 50 nM.
